Data: the supplement of paper PMC11061612

Key:
Test in all cases: Bliss excess, mean over the matrix (fraction); higher = more synergy
SK-N-AS (Neuroblastoma) = test system: SK-N-AS (Neuroblastoma)
Outline: (§1)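 Bliss excess equals the observed combination effect minus the expected value EA + EB − EA·EB, where EA and EB are the effects of each agent alone. Combination Emax is the second-highest inhibition within the matrix. Inhibition was scaled from CellTiter-Glo 2.0 luminescence, with 0 set by vehicle wells and 1 by blank wells, after 72 hours of two-drug dosing of cells plated in 1536-well plates.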

[1] = test system: NCI-H2122 (Lung Adenocarcinoma)
Outline: as §1

[2] = test system: EFO-21 (Ovarian Carcinoma)
Outline: as §1

[3] = test system: SW982 (Other Solid Carcinomas)
Outline: as §1

[4] = test system: NCI-H650 (Lung Adenocarcinoma)
Outline: as §1

[5] = test system: OACM5-1 (Esophageal Adenocarcinoma)
Outline: as §1

[6] = test system: KOPN-8 (B-Lymphoblastic Leukemia)
Outline: as §1

[7] = test system: EJM (Plasma Cell Myeloma)
Outline: as §1

[8] = test system: G-401 (Other Solid Carcinomas)
Outline: as §1

[9] = test system: KGN (Other Solid Carcinomas)
Outline: as §1

[10] = test system: Mo-T (Other Blood Carcinomas)
Outline: as §1

COLO-679 (Melanoma) = test system: COLO-679 (Melanoma)
Outline: as §1

[11] = test system: HAL-01 (B-Lymphoblastic Leukemia)
Outline: as §1

[12] = test system: MDA-MB-453 (Breast Carcinoma)
Outline: as §1

[13] = test system: CADO-ES1 (Ewing's Sarcoma)
Outline: as §1

[14] = test system: ML-2 (Acute Myeloid Leukemia)
Outline: as §1

[15] = test system: NCI-H1993 (Lung Adenocarcinoma)
Outline: as §1

[16] = test system: MOG-G-UVW (Low Grade Glioma)
Outline: as §1

[17] = test system: HCC2998 (Colorectal Carcinoma)
Outline: as §1

Hey (Ovarian Carcinoma) = test system: Hey (Ovarian Carcinoma)
Outline: as §1

| SMILES | Bliss excess (SK-N-AS (Neuroblastoma)) | Bliss excess [1] | Bliss excess [2] | Bliss excess [3] | Bliss excess [4] | Bliss excess [5] | Bliss excess [6] | Bliss excess [7] | Bliss excess [8] | Bliss excess [9] | Bliss excess [10] | Bliss excess (COLO-679 (Melanoma)) | Bliss excess [11] | Bliss excess [12] | Bliss excess [13] | Bliss excess [14] | Bliss excess [15] | Bliss excess [16] | Bliss excess [17] | Bliss excess (Hey (Ovarian Carcinoma)) |
| --- | --- | --- | --- | --- | --- | --- | --- | --- | --- | --- | --- | --- | --- | --- | --- | --- | --- | --- | --- | --- |
| CC(=O)c1c(C)c2cnc(Nc3ccc(N4CCNCC4)cn3)nc2n(C2CCCC2)c1=O [Palbociclib] + Cc1c2c(nn1C)CSCc1cc(n(C)n1)CSc1cc(c3ccccc3c1)OCCCc1c(C(=O)O)n(C)c3c-2c(Cl)ccc13 [AZD5991] (first compound max 10 µM, 7x7, partner max 1 µM) | -0.006 | -0.0218 | -0.0458 | -0.0151 | -0.0583 | -0.0456 | 0.0082 | -0.0517 | 0.0308 | -0.0665 | -0.0208 | -0.107 | 0.0597 | -0.0218 | -0.0356 | 0.0133 | 0.0186 | -0.0122 | -0.0746 | -0.0205 |
| C[C@@H]1COCCN1c1cc(C2([S@](C)(=N)=O)CC2)nc(-c2ccnc3[nH]ccc23)n1 [AZD6738] + O=C(c1cc(Cc2n[nH]c(=O)c3ccccc23)ccc1F)N1CCN(C(=O)C2CC2)CC1 [Olaparib] (first compound max 10 µM, 7x7, partner max 10 µM) | 0.0223 | -0.0303 | -0.0375 | -0.0202 | -0.0227 | 0.0071 | -0.0358 | -0.0078 | 0.0454 | -0.0087 | 0.0311 | -0.0163 | 0.003 | -0.0764 | 0.03 | -0.0667 | 0.033 | 0.0629 | 0.0443 | 0.0379 |
| NC1(C(=O)N[C@@H](CCO)c2ccc(Cl)cc2)CCN(c2ncnc3[nH]ccc23)CC1 [Capivasertib] + COc1nnc2ccc(N3CCC(c4ccc(OCCN5CCN(C)C(=O)[C@H]5C)cc4)CC3)nn12 [AZD5153] (first compound max 10 µM, 7x7, partner max 1 µM) | -0.0159 | 0.0243 | -0.046 | -0.0535 | -0.0108 | -0.019 | -0.0463 | 0.0732 | 0.012 | 0.0358 | -0.0717 | -0.122 | -0.0429 | -0.0148 | 0.0331 | -0.0187 | 0.0372 | 0.0173 | -0.0046 | 0.0206 |
| NC1(C(=O)N[C@@H](CCO)c2ccc(Cl)cc2)CCN(c2ncnc3[nH]ccc23)CC1 [Capivasertib] + Cn1cnc2c(F)c(Nc3ccc(Br)cc3Cl)c(C(=O)NOCCO)cc21 [Selumetinib] (first compound max 10 µM, 7x7, partner max 10 µM) | 0.0046 | 0.0107 | -0.0352 | 0.0235 | -0.0368 | 0.0183 | 0.106 | 0.08 | 0.0695 | -0.0041 | 0.0563 | -0.0912 | 0.0548 | 0.0079 | -0.0008 | 0.0654 | 0.0372 | 0.0622 | -0.0654 | -0.0041 |
| COc1cccc2c1C(=O)c1c(O)c3c(c(O)c1C2=O)C[C@@](O)(C(=O)CO)C[C@@H]3O[C@H]1C[C@H](N)[C@H](O)[C@H](C)O1 [Doxorubicin] + Cc1cc2ncnn2cc1Nc1ncc2c(n1)n(C1CCOCC1)c(=O)n2C [AZD7648] (first compound max 1 µM, 7x7, partner max 10 µM) | 0.0664 | 0.0669 | -0.03 | 0.0226 | 0.0195 | 0.0577 | 0.119 | 0.0833 | 0.0259 | 0.0694 | 0.0096 | 0.0178 | 0.0877 | 0.0432 | 0.111 | 0.0281 | -0.0182 | 0.101 | 0.0344 | 0.13 |
| CN(CCO)CC[C@H](CSc1ccccc1)Nc1ccc(S(=O)(=O)NC(=O)c2ccc(N3CCC([C@@H](O)c4ccccc4-c4ccc(Cl)cc4)CC3)cc2)cc1S(=O)(=O)C(F)(F)F [AZD4320] + CN(C)CCCOc1ccc(-c2ccc3ncc4c(c3c2)n(C2CCOCC2)c(=O)n4C)cn1 [AZD0156] (first compound max 1 µM, 7x7, partner max 1 µM) | -0.0331 | -0.0121 | -0.0579 | -0.0487 | -0.0182 | -0.0016 | -0.052 | 0.0079 | -0.0506 | -0.0231 | -0.0982 | -0.068 | 0.024 | -0.0449 | 0.0269 | -0.0056 | -0.0734 | -0.0476 | -0.01 | -0.0272 |
| Cn1cnc2c(F)c(Nc3ccc(Br)cc3Cl)c(C(=O)NOCCO)cc21 [Selumetinib] + CCN(CCO)CCCOc1ccc2c(Nc3cc(CC(=O)Nc4cccc(F)c4)[nH]n3)ncnc2c1 [AZD2811] (first compound max 10 µM, 7x7, partner max 1 µM) | -0.0108 | -0.0258 | -0.0877 | -0.0933 | 0.0056 | 0.0404 | 0.0253 | 0.0145 | 0.0143 | -0.0586 | -0.0328 | -0.0381 | 0.0385 | -0.026 | -0.0515 | -0.0371 | 0.0327 | 0.0279 | -0.019 | -0.0165 |
| COc1nnc2ccc(N3CCC(c4ccc(OCCN5CCN(C)C(=O)[C@H]5C)cc4)CC3)nn12 [AZD5153] + C=CCn1c(=O)c2cnc(Nc3ccc(N4CCN(C)CC4)cc3)nc2n1-c1cccc(C(C)(C)O)n1 [AZD1775] (first compound max 1 µM, partner max 1 µM) | -0.056 | -0.0432 | -0.0036 | -0.079 | -0.0866 | 0.0128 | -0.0267 | 0.0229 | -0.0526 | -0.12 | -0.0532 | -0.042 | -0.0938 | -0.0243 | -0.0483 | -0.0214 | -0.0758 | -0.0518 | -0.0083 | -0.0997 |
| COc1cccc(OCCCN)c1-c1cc(Nc2cnc(C#N)cn2)n[nH]1 [Prexasertib] + CCc1c2c(nc3ccc(O)cc13)-c1cc3c(c(=O)n1C2)COC(=O)[C@]3(O)CC [SN-38] (first compound max 1 µM, 7x7, partner max 0.3 µM) | 0.0088 | -0.0405 | -0.0714 | -0.0952 | -0.0227 | -0.0675 | -0.0147 | -0.0446 | -0.0398 | -0.116 | -0.0465 | -0.111 | -0.0262 | 0.0234 | 0.0033 | -0.007 | 0.055 | 0.0045 | 0.0876 | -0.0717 |
| CC(=O)c1c(C)c2cnc(Nc3ccc(N4CCNCC4)cn3)nc2n(C2CCCC2)c1=O [Palbociclib] + CC1(C)CCC(CN2CCN(c3ccc(C(=O)NS(=O)(=O)c4ccc(NCC5CCOCC5)c([N+](=O)[O-])c4)c(Oc4cnc5[nH]ccc5c4)c3)CC2)=C(c2ccc(Cl)cc2)C1 [Venetoclax] (first compound max 10 µM, 7x7, partner max 1 µM) | -0.0354 | -0.0327 | -0.0638 | -0.0508 | -0.0508 | 0.108 | -0.0341 | -0.0211 | 0.0529 | 0.079 | -0.0648 | -0.0676 | -0.0461 | 0.0091 | -0.177 | 0.0634 | 0.0108 | -0.0282 | -0.0212 | 0.0511 |
| Cc1c2c(nn1C)CSCc1cc(n(C)n1)CSc1cc(c3ccccc3c1)OCCCc1c(C(=O)O)n(C)c3c-2c(Cl)ccc13 [AZD5991] + C1CN(CCC1(C(=O)N[C@@H](CCO)C2=CC=C(C=C2)Cl)N)C3=NC=NC4=C3C=CN4 [Capivasertib] (first compound max 1 µM, 7x7, partner max 3 µM) | 0.0017 | 0.0061 | -0.0406 | -0.0074 | -0.0044 | -0.0123 | -0.0468 | 0.0504 | 0.0486 | 0.0051 | -0.0046 | -0.0179 | 0.0298 | 0.05 | -0.029 | -0.0159 | 0.0523 | -0.0173 | -0.0434 | -0.0349 |
| CC1(C)CCC(CN2CCN(c3ccc(C(=O)NS(=O)(=O)c4ccc(NCC5CCOCC5)c([N+](=O)[O-])c4)c(Oc4cnc5[nH]ccc5c4)c3)CC2)=C(c2ccc(Cl)cc2)C1 [Venetoclax] + C=CCn1c(=O)c2cnc(Nc3ccc(N4CCN(C)CC4)cc3)nc2n1-c1cccc(C(C)(C)O)n1 [AZD1775] (first compound max 1 µM, partner max 1 µM) | -0.07 | -0.0409 | 0.0233 | 0.018 | -0.0422 | -0.056 | -0.0079 | -0.0641 | -0.0898 | 0.0003 | -0.0213 | -0.053 | 0.0564 | 0.0707 | -0.0626 | -0.0553 | 0.0027 | 0.0612 | -0.0423 | -0.0821 |
| NC1(C(=O)N[C@@H](CCO)c2ccc(Cl)cc2)CCN(c2ncnc3[nH]ccc23)CC1 [Capivasertib] + CCN(CCO)CCCOc1ccc2c(Nc3cc(CC(=O)Nc4cccc(F)c4)[nH]n3)ncnc2c1 [AZD2811] (first compound max 10 µM, 7x7, partner max 1 µM) | 0.0008 | -0.0827 | -0.0156 | 0.0184 | -0.0281 | -0.0245 | -0.0632 | 0.0798 | -0.0072 | -0.0623 | -0.0703 | -0.2 | -0.0779 | 0.002 | -0.0618 | -0.0094 | 0.0065 | 0.0415 | -0.0095 | 0.0375 |
| CS(=O)(=O)CCNCc1ccc(-c2ccc3ncnc(Nc4ccc(OCc5cccc(F)c5)c(Cl)c4)c3c2)o1 [Lapatinib] + C[C@@H](Oc1cc(-c2cnn(C3CCNCC3)c2)cnc1N)c1c(Cl)ccc(F)c1Cl [Crizotinib] (first compound max 10 µM, 7x7, partner max 10 µM) | -0.0676 | -0.0181 | -0.0148 | -0.0579 | -0.0521 | -0.0691 | -0.0482 | -0.0001 | -0.0617 | -0.0702 | -0.0658 | -0.066 | -0.0265 | 0.0232 | -0.0023 | -0.0133 | 0.0268 | 0.0013 | -0.044 | -0.0526 |
